Like-named read-outs stand apart in the source and are kept apart here.
How the values were obtained:
[1] = Safety and tolerability: treatment-emergent adverse events; format: in vivo, healthy Japanese adult participants; conditions: midazolam cohort (ensitrelvir 375/125 mg + midazolam 2 mg), N = 14
CYP3A [2] = conditions: with ensitrelvir 750/250 mg; cited from earlier work
CYP3A [3] = test: clinical; conditions: human, in vivo, po, 2 mg, midazolam 2 mg alone, Day -2
CYP3A [4] = conditions: midazolam with ensitrelvir 375/125 mg / midazolam alone, Day 5/Day -2
CYP3A [5] = conditions: with itraconazole, prednisolone 20 mg administered on Day 5; cited from earlier work
CYP3A [6] = test: clinical; conditions: human, in vivo, po, 10 mg; for half-life: t1/2,z GLS mean
CYP3A [7] = test system: CYP3A
[8] = 5th day after the last ensitrelvir dose / prednisolone alone, Day 9/Day -2
[9] = 10th day after the last ensitrelvir dose / prednisolone alone, Day 14/Day -2
[10] = prednisolone with ensitrelvir 750/250 mg / prednisolone alone, Day 5/Day -2

For Cc1ncc2n1-c1ccc(Cl)cc1C(c1ccccc1F)=NC2 [Midazolam], the “Diarrhea, events related to midazolam” value [1] is listed as 1, the “Somnolence, events related to midazolam” value [1] is listed as 8 and the “increase in the plasma exposure of midazolam” value (CYP3A [2]) is listed as 8.80 fold. The “increased ratio of Cmax of midazolam” value (CYP3A [2]) was 2.78 fold, the AUC(0-inf) (CYP3A [3]; AUC0–inf GLS mean) was 24.1 ng·h/mL and the AUC(0-t) (CYP3A [3]; AUC0–last GLS mean) was 23.4 ng·h/mL. The Cmax (CYP3A [3]; Cmax GLS mean) was 12.6 ng/mL, the MRT (CYP3A [3]; MRT GLS mean) was 3.18 h and the half-life (CYP3A [3]; t1/2,z GLS mean) was 194 min. The k el (CYP3A [3]; λz GLS mean) was 5.94e-05 s⁻¹, the “AUC0–inf GLS mean ratio (90% CI)” value (CYP3A [4]) was 6.7685 (6.1572–7.4404) and the “AUC0–last GLS mean ratio (90% CI)” value (CYP3A [4]) was 6.9011 (6.2722–7.5931). For the same compound, the “Cmax GLS mean ratio (90% CI)” value (CYP3A [4]) was 2.8012 (2.3798–3.2971), the “MRT GLS mean ratio (90% CI)” value (CYP3A [4]) was 2.6506 (2.4623–2.8532) and the “t1/2,z GLS mean ratio (90% CI)” value (CYP3A [4]) was 2.2750 (2.0373–2.5406). For the same compound, the “λz GLS mean ratio (90% CI)” value (CYP3A [4]) was 0.4396 (0.3936–0.4909).
In the case of C[C@]12C=CC(=O)C=C1CC[C@@H]1[C@@H]2[C@@H](O)C[C@@]2(C)[C@H]1CC[C@]2(O)C(=O)CO [Prednisolone], the “AUC of prednisolone increase” value (CYP3A [5]) is given as 1.24 fold, the AUC(0-inf) (CYP3A [6]; AUC0–inf GLS mean, prednisolone 10 mg alone, Day -2) is given as 1090 ng·h/mL and the AUC(0-t) (CYP3A [6]; AUC0–last GLS mean, prednisolone 10 mg alone, Day -2) is given as 1040 ng·h/mL. For the same compound, the Cmax (CYP3A [6]; Cmax GLS mean, prednisolone 10 mg alone, Day -2) was 243 ng/mL, the MRT (CYP3A [6]; MRT GLS mean, prednisolone 10 mg alone, Day -2) was 4.26 h and the half-life (CYP3A [6]; prednisolone 10 mg alone, Day -2) was 153 min. For the same compound, the half-life (CYP3A [6]; prednisolone 10 mg, 5th day after the last ensitrelvir dose, Day 9) was 163 min, the half-life (CYP3A [6]; prednisolone 10 mg, 10th day after the last ensitrelvir dose, Day 14) was 160 min and the k el (CYP3A [6]; λz GLS mean, prednisolone 10 mg alone, Day -2) was 7.56e-05 s⁻¹. For the same compound, the “AUC0–inf GLS mean ratio (90% CI)” value (CYP3A [7]; [8]) was 1.1243 (1.0973–1.1521), the “AUC0–last GLS mean ratio (90% CI)” value (CYP3A [7]; [8]) was 1.1142 (1.0842–1.1451) and the “Cmax GLS mean ratio (90% CI)” value (CYP3A [7]; [8]) was 1.0953 (0.9865–1.2160). The “MRT GLS mean ratio (90% CI)” value (CYP3A [7]; [8]) was 1.0569 (1.0095–1.1065), the “t1/2,z GLS mean ratio (90% CI)” value (CYP3A [7]; [8]) was 1.0660 (1.0349–1.0980) and the “λz GLS mean ratio (90% CI)” value (CYP3A [7]; [8]) was 0.9381 (0.9107–0.9663). The “AUC0–inf GLS mean ratio (90% CI)” value (CYP3A [7]; [9]) was 1.0396 (1.0146–1.0653), the “AUC0–last GLS mean ratio (90% CI)” value (CYP3A [7]; [9]) was 1.0267 (0.9990–1.0552) and the “Cmax GLS mean ratio (90% CI)” value (CYP3A [7]; [9]) was 0.9927 (0.8941–1.1021). The “MRT GLS mean ratio (90% CI)” value (CYP3A [7]; [9]) was 1.0419 (0.9952–1.0908), the “t1/2,z GLS mean ratio (90% CI)” value (CYP3A [7]; [9]) was 1.0474 (1.0169–1.0789) and the “λz GLS mean ratio (90% CI)” value (CYP3A [7]; [9]) was 0.9547 (0.9269–0.9834). For the same compound, the “AUC0–inf GLS mean ratio (90% CI)” value (CYP3A [7]; [10]) was 1.2476 (1.2176–1.2784), the “AUC0–last GLS mean ratio (90% CI)” value (CYP3A [7]; [10]) was 1.2408 (1.2073–1.2752) and the “Cmax GLS mean ratio (90% CI)” value (CYP3A [7]; [10]) was 1.1141 (1.0035–1.2369). For the same compound, the “MRT GLS mean ratio (90% CI)” value (CYP3A [7]; [10]) was 1.1065 (1.0569–1.1584), the “t1/2,z GLS mean ratio (90% CI)” value (CYP3A [7]; [10]) was 1.1160 (1.0835–1.1496) and the “λz GLS mean ratio (90% CI)” value (CYP3A [7]; [10]) was 0.8960 (0.8699–0.9230).
